What all share (assay): relative viability (nuclei count vs DMSO), 5 days (fraction); higher = more cells survive
Compound in test [1]: C=CCNC1=C2C[C@@H](C)C[C@H](OC)[C@H](O)[C@@H](C)/C=C(\C)[C@H](OC(N)=O)[C@@H](OC)/C=C\C=C(/C)C(=O)NC(=CC1=O)C2=O [17-AAG] + C[C@@H](Oc1cc(-c2cnn(C3CCNCC3)c2)cnc1N)c1c(Cl)ccc(F)c1Cl [Crizotinib] (partner 1 µM)
A digest of the protocol: (§1)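 The day after seeding in 1536-well plates, lung cancer cell lines were treated by pin tool with a single drug, or with a fixed anchor-drug dose together with five library-drug doses (not always all listed) in √10 steps. After 5 days, a combined fix-and-stain solution (final 0.05% Triton X-100, 1% formaldehyde, 1 ug/ml Hoechst) was added. Nuclei counted on 4× images gave relative viability as treated counts over vehicle counts, reported as the median of duplicate plates.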

Compound in test [2]: C=CCNC1=C2C[C@@H](C)C[C@H](OC)[C@H](O)[C@@H](C)/C=C(\C)[C@H](OC(N)=O)[C@@H](OC)/C=C\C=C(/C)C(=O)NC(=CC1=O)C2=O [17-AAG] + CC(=O)c1c(C)c2cnc(Nc3ccc(N4CCNCC4)cn3)nc2n(C2CCCC2)c1=O [Palbociclib] (partner 0.5 µM)
A digest of the protocol: as §1

Compound in test [3]: C=CCNC1=C2C[C@@H](C)C[C@H](OC)[C@H](O)[C@@H](C)/C=C(\C)[C@H](OC(N)=O)[C@@H](OC)/C=C\C=C(/C)C(=O)NC(=CC1=O)C2=O [17-AAG] + NC(=O)Nc1cc(-c2cccc(F)c2)sc1C(=O)N[C@H]1CCCNC1 [AZD7762] (partner 0.2 µM)
The procedure, abridged:
as §1

Compound in test [4]: C=CCNC1=C2C[C@@H](C)C[C@H](OC)[C@H](O)[C@@H](C)/C=C(\C)[C@H](OC(N)=O)[C@@H](OC)/C=C\C=C(/C)C(=O)NC(=CC1=O)C2=O [17-AAG] + O=C(CCCCCCC(=O)Nc1ccccc1)NO [Vorinostat] (partner 1 µM)
The procedure, abridged:
as §1

On to EBC-1, for which the relative viability in test [1] (first compound 0.00128 µM) was 0.237; in test [1] (first compound 0.004048 µM), 0.207; in test [1] (first compound 0.0128 µM) it was 0.163; in test [1] (first compound 0.04048 µM), 0.148; in test [1] (first compound 0.128 µM) it was 0.135.

As for EKVX, the relative viability in test [2] (first compound 0.00128 µM) stood at 0.357; in test [2] (first compound 0.004048 µM), 0.391; in test [2] (first compound 0.0128 µM), 0.363; in test [2] (first compound 0.04048 µM), 0.152; in test [2] (first compound 0.128 µM) it was 0.127; in test [1] (first compound 0.00128 µM) it was 1.07. Further, the relative viability was 0.902 in test [1] (first compound 0.004048 µM); 0.951 in test [1] (first compound 0.0128 µM); 0.529 in test [1] (first compound 0.04048 µM); 0.114 in test [1] (first compound 0.128 µM); 0.817 in test [3] (first compound 0.00128 µM); 0.726 in test [3] (first compound 0.004048 µM). Besides, the relative viability in test [3] (first compound 0.0128 µM) turned out to be 0.669; in test [3] (first compound 0.04048 µM), 0.435; in test [3] (first compound 0.128 µM), 0.162; in test [4] (first compound 0.00128 µM), 0.783; in test [4] (first compound 0.004048 µM), 0.802; in test [4] (first compound 0.0128 µM) it was 0.719. The values for the relative viability in test [4] (first compound 0.04048 µM) and in test [4] (first compound 0.128 µM) were 0.423 and 0.567, respectively.

For EMC-BAC-2, the relative viability in test [2] (first compound 0.00128 µM) came out at 0.544; in test [2] (first compound 0.004048 µM), 0.525; in test [2] (first compound 0.0128 µM) it was 0.521; in test [2] (first compound 0.04048 µM), 0.462; in test [2] (first compound 0.128 µM), 0.4; in test [1] (first compound 0.00128 µM), 0.712. Further, the relative viability in test [1] (first compound 0.004048 µM) was found to be 0.753; in test [1] (first compound 0.0128 µM), 0.756; in test [1] (first compound 0.04048 µM), 0.902; in test [1] (first compound 0.128 µM), 0.281; in test [3] (first compound 0.00128 µM), 1.17; in test [3] (first compound 0.004048 µM), 1.15. Also, the relative viability was 0.735 in test [3] (first compound 0.0128 µM); 0.598 in test [3] (first compound 0.04048 µM); 0.287 in test [3] (first compound 0.128 µM); 0.609 in test [4] (first compound 0.00128 µM); 0.506 in test [4] (first compound 0.004048 µM); 0.387 in test [4] (first compound 0.0128 µM). The relative viability in test [4] (first compound 0.04048 µM) came to 0.199; in test [4] (first compound 0.128 µM), 0.357.

Consider EPLC-272H, for which the relative viability in test [2] (first compound 0.00128 µM) came out at 0.34; in test [2] (first compound 0.004048 µM), 0.323; in test [2] (first compound 0.0128 µM), 0.348; in test [2] (first compound 0.04048 µM), 0.147; in test [2] (first compound 0.128 µM), 0.0684; in test [1] (first compound 0.00128 µM) it was 0.956. Besides, the relative viability in test [1] (first compound 0.004048 µM) is 0.872; in test [1] (first compound 0.0128 µM) it was 1.01; in test [1] (first compound 0.04048 µM) it was 0.672; in test [1] (first compound 0.128 µM), 0.338; in test [3] (first compound 0.00128 µM), 0.208; in test [3] (first compound 0.004048 µM) it was 0.3. The relative viability is 0.207 in test [3] (first compound 0.0128 µM); 0.13 in test [3] (first compound 0.04048 µM); 0.101 in test [3] (first compound 0.128 µM); 0.398 in test [4] (first compound 0.00128 µM); 0.426 in test [4] (first compound 0.004048 µM); 0.109 in test [4] (first compound 0.0128 µM). Also, the relative viability was 0.115 in test [4] (first compound 0.04048 µM) and 0.0985 in test [4] (first compound 0.128 µM).

For the cell line H3255, the relative viability was found to be 0.306 in test [2] (first compound 0.00128 µM); 0.292 in test [2] (first compound 0.004048 µM); 0.299 in test [2] (first compound 0.0128 µM); 0.247 in test [2] (first compound 0.04048 µM); 0.26 in test [2] (first compound 0.128 µM); 0.926 in test [1] (first compound 0.00128 µM). Moreover, the relative viability in test [1] (first compound 0.004048 µM) is 0.833; in test [1] (first compound 0.0128 µM), 0.646; in test [1] (first compound 0.04048 µM), 0.196; in test [1] (first compound 0.128 µM), 0.161; in test [3] (first compound 0.00128 µM) it was 0.876; in test [3] (first compound 0.004048 µM) it was 1. Besides, the relative viability came out at 0.674 in test [3] (first compound 0.0128 µM); 0.252 in test [3] (first compound 0.04048 µM); 0.245 in test [3] (first compound 0.128 µM); 0.898 in test [4] (first compound 0.00128 µM); 0.864 in test [4] (first compound 0.004048 µM); 0.82 in test [4] (first compound 0.0128 µM). Moreover, the relative viability in test [4] (first compound 0.04048 µM) worked out at 0.282; in test [4] (first compound 0.128 µM), 0.292.

As for HARA, the relative viability in test [2] (first compound 0.00128 µM) came out at 0.248; in test [2] (first compound 0.004048 µM), 0.27; in test [2] (first compound 0.0128 µM) it was 0.261; in test [2] (first compound 0.04048 µM), 0.263; in test [2] (first compound 0.128 µM) it was 0.215; in test [1] (first compound 0.00128 µM) it was 1.05. In addition, the relative viability in test [1] (first compound 0.004048 µM) stood at 1.05; in test [1] (first compound 0.0128 µM), 1.06; in test [1] (first compound 0.04048 µM), 1.12; in test [1] (first compound 0.128 µM), 0.725; in test [3] (first compound 0.00128 µM), 0.425; in test [3] (first compound 0.004048 µM), 0.295. The relative viability in test [3] (first compound 0.0128 µM) amounted to 0.209; in test [3] (first compound 0.04048 µM), 0.251; in test [3] (first compound 0.128 µM), 0.18; in test [4] (first compound 0.00128 µM) it was 0.485; in test [4] (first compound 0.004048 µM) it was 0.586; in test [4] (first compound 0.0128 µM) it was 0.517. Further, the relative viability was 0.396 in test [4] (first compound 0.04048 µM) and 0.097 in test [4] (first compound 0.128 µM).

As for HCC-15, the relative viability was determined as 0.693 in test [2] (first compound 0.00128 µM); 0.687 in test [2] (first compound 0.004048 µM); 0.429 in test [2] (first compound 0.0128 µM); 0.31 in test [2] (first compound 0.04048 µM); 0.149 in test [2] (first compound 0.128 µM); 0.767 in test [1] (first compound 0.00128 µM). For the same cell line, the relative viability in test [1] (first compound 0.004048 µM) was 0.758; in test [1] (first compound 0.0128 µM) it was 0.456; in test [1] (first compound 0.04048 µM) it was 0.4; in test [1] (first compound 0.128 µM), 0.132; in test [3] (first compound 0.00128 µM), 1.29; in test [3] (first compound 0.004048 µM) it was 1.27. Besides, the relative viability in test [3] (first compound 0.0128 µM) was 0.986; in test [3] (first compound 0.04048 µM) it was 0.461; in test [3] (first compound 0.128 µM) it was 0.158; in test [4] (first compound 0.00128 µM), 0.892; in test [4] (first compound 0.004048 µM), 0.995; in test [4] (first compound 0.0128 µM) it was 0.641. For the same cell line, the relative viability in test [4] (first compound 0.04048 µM) worked out at 0.407; in test [4] (first compound 0.128 µM) it was 0.263.

As to HCC-44, the relative viability in test [2] (first compound 0.00128 µM) is 0.944; in test [2] (first compound 0.004048 µM), 1.01; in test [2] (first compound 0.0128 µM), 0.991; in test [2] (first compound 0.04048 µM) it was 0.978; in test [2] (first compound 0.128 µM), 0.914; in test [1] (first compound 0.00128 µM), 0.823. Besides, the relative viability stood at 0.746 in test [1] (first compound 0.004048 µM); 0.766 in test [1] (first compound 0.0128 µM); 0.204 in test [1] (first compound 0.04048 µM); 0.122 in test [1] (first compound 0.128 µM); 1 in test [3] (first compound 0.00128 µM); 1.02 in test [3] (first compound 0.004048 µM). Further, the relative viability in test [3] (first compound 0.0128 µM) was determined as 1.03; in test [3] (first compound 0.04048 µM), 0.973; in test [3] (first compound 0.128 µM) it was 0.398; in test [4] (first compound 0.00128 µM), 1.17; in test [4] (first compound 0.004048 µM), 1.13; in test [4] (first compound 0.0128 µM) it was 1.19. For the same cell line, the relative viability in test [4] (first compound 0.04048 µM) was found to be 1.09; in test [4] (first compound 0.128 µM) it was 0.917.

The record behind these values is the supplement of paper PMC10307832.
